Source: article PMC11807261 (ACS infectious diseases, 2022)
Entries after “also recorded” stand apart in the source; their conditions may differ. Like-named read-outs stand apart in the source and are kept apart here.

Tests used:
[1] = molecular target: T1, Mtb GlnA1 (Mycobacterium tuberculosis, UniProt P9WN39); test: biochemical
T1 construct: His6 (N); made in house; host or cells: E. coli BL21(DE3)

[2] = tested on: Mtb H37Rv; type: cell-based, Mycobacterium tuberculosis
[3] = Cytotoxicity (CC50); type: cell-based; conditions: African green monkey, Vero E6 cells
[4] = molecular target: recombinant human glutamine synthetase (GS) (Homo sapiens, UniProt P15104); test: biochemical; type: biochemical; conditions: for inhibition of recombinant human GS: LIN at 100 µM (Figure S7)
Sequence of recombinant human glutamine synthetase (GS) (P15104 whole entry): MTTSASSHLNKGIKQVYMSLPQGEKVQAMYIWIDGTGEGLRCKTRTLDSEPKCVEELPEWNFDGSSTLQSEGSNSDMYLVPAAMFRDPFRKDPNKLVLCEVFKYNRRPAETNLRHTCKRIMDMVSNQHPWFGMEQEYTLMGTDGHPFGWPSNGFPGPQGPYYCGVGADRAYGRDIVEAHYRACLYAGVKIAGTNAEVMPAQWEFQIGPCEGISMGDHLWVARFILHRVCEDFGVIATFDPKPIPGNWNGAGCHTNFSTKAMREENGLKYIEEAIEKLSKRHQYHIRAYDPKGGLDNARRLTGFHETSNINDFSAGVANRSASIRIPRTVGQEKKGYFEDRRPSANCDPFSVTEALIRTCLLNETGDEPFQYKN

[5] = tested on: THP-1 macrophages; type: cell-based
[6] = tested on: Mtb H37Rv within THP-1 macrophages; type: cell-based, Mycobacterium tuberculosis
[7] = compounds directly from MMV Pathogen Box library plates, read-out: IC50 (μM), library
[8] = compounds resupplied from MMV, mean ± SE (n=3), read-out: IC50 (μM), resupply

T1 sequence (P9WN39 whole entry): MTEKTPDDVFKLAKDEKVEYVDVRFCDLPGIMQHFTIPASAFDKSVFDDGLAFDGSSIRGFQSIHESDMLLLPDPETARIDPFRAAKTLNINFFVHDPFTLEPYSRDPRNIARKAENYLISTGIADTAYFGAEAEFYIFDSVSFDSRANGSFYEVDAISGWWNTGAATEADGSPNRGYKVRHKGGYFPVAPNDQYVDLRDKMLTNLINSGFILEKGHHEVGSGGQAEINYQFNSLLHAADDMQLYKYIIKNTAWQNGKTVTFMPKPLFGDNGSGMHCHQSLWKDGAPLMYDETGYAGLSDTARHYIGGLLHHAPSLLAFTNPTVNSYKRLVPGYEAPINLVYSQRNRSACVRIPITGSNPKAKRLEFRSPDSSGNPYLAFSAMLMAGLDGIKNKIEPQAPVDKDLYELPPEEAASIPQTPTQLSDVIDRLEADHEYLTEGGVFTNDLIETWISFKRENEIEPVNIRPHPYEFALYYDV

Q: For `Cc1ccc(NC(=O)c2nc[nH]c2C(=O)Nc2nc3ccccc3[nH]2)c(C)c1` [MMV011903], which IC50 [1, 7] is on record?
A: 0.78 µM

Q: And the IC50 [1, 8]?
A: 1.63 ± 0.2 µM

Q: For `C[C@]1(O)C[C@@H](c2nc(-c3ccc4ccc(-c5ccccc5)nc4c3)c3c(N)nccn32)C1` [LIN, linsitinib], which “growth inhibition concentration (GIC)” value [2] is on record?
A: ~ 21 μM

Q: What about the CC50 [3] of the same molecule?
A: 67.5 µM

Q: And the “inhibition of recombinant human GS” value [4]?
A: did not inhibit; also recorded: does not inhibit

Q: And the “level of mTOR phosphorylation” value [5]?
A: reduce the level of mTOR phosphorylation

Q: And the “level of p62 (autophagy flux)” value [5]?
A: seemingly reduced

Q: And the “apoptosis induction (cleaved caspase 3)” value ([5]; 10 μM LIN, Western blotting)?
A: no apoptosis induction

Q: What about the “autophagy induction (LC3B-II converted from LC3B-I)” value ([5]; 10 μM LIN, Western blotting) of the same molecule?
A: induced autophagy

Q: What about the “autophagosome and autolysosome forming puncta” value ([5]; mRFP-GFP-LC3 reporter THP-1, 10 μM LIN 24 h, Mtb-infected and uninfected) of the same molecule?
A: elevated

Q: And the “intracellular Mtb killing in combination with bedaquiline (CFU)” value [6]?
A: eliminated more intracellular Mtb and improved the killing effect of BDQ

Q: What about the “survival of intracellular Mtb (CFU)” value [6] of the same molecule?
A: significantly decreased the survival

Q: Which IC50 [1, 7] does the source give for `CC(C)(CN)c1nc(-c2ccc(Cl)c(O)c2)c(-c2ccnc(N)n2)[nH]1` [MMV030734] here?
A: 1.38 µM

Q: What about the IC50 [1, 8] of the same molecule?
A: 1.84 ± 0.09 µM

Q: What does the source list for `Cc1nc(-c2ccccn2)nc(N2CCC(Cc3ccccc3)C2)c1Cl` (stereo not shown) [MMV659004]?
A: IC50 [1, 7]: 1.14 µM; IC50 [1, 8]: 0.66 ± 0.04 µM

Q: For `CP(=O)(O)CCC(N)C(=O)O` (racemic) [PPT, DL-phosphinothricin], which IC50 [1] is on record?
A: 4.45 ± 0.19 µM

Q: With `COc1ccc2cc(-c3nc(C(C)(C)C)[nH]c3-c3ccnc(N)c3)ccc2c1` [11a] as the molecule, how does the IC50 [1] read?
A: 0.53 ± 0.027 µM

Q: What about the “inhibition of recombinant human GS” value [4] of the same molecule?
A: did inhibit it considerably

Q: What about the IC50 ([4]; malachite green assay, read-out: IC50 against human GS) of the same molecule?
A: ~10.4 µM

Q: Which IC50 [1, 7] does the source give for `c1ccc(-c2nc(NC3CCCCC3)cc(C3CC3)n2)nc1` [MMV021013] here?
A: 0.69 µM

Q: And the IC50 [1, 8]?
A: 0.69 ± 0.08 µM
